From US11053204B2, “Pyrimidinyloxy benzene derivatives as herbicides” (FMC Corporation, priority 2015, dated 2021)

Assays:
Assay type in all cases: in vivo
[1] = test system: Italian ryegrass (Lolium multiflorum); assay: Test A preemergence, visual injury rating; details: 0 to 100 scale (0 no effect, 100 complete control)
Description: (§1) Seeds of plant species selected from barnyardgrass (Echinochloa crus-galli), kochia (Kochia scoparia), ragweed (common ragweed, Ambrosia elatior), Italian ryegrass (Lolium multiflorum), large (Lg) crabgrass (Digitaria sanguinalis), giant foxtail (Setaria faberii), morningglory (Ipomoea spp.), pigweed (Amaranthus retroflexus), velvetleaf (Abutilon theophrasti), wheat (Triticum aestivum), and corn (Zea mays) were planted into a blend of loam soil and sand and treated preemergence with a directed soil spray using test chemicals formulated in a non-phytotoxic solvent mixture which included a surfactant.
(§2) At the same time, plants selected from these crop and weed species and also blackgrass (Alopecurus myosuroides), and galium (catchweed bedstraw, Galium aparine) were planted in pots containing the same blend of loam soil and sand and treated with postemergence applications of test chemicals formulated in the same manner. Plants ranged in height from 2 to 10 cm and were in the one- to two-leaf stage for the postemergence treatment. Treated plants and untreated controls were maintained in a greenhouse for approximately 10 days, after which time all treated plants were compared to untreated controls and visually evaluated for injury. Plant response ratings, summarized in Table A, are based on a 0 to 100 scale where 0 is no effect and 100 is complete control. A dash (-) response means no test result.

[2] = test system: barnyardgrass (Echinochloa crus-galli); assay: Test A preemergence, visual injury rating; details: 0 to 100 scale (0 no effect, 100 complete control)
Description: as §1, §2

[3] = test system: giant foxtail (Setaria faberii); assay: Test A preemergence, visual injury rating; details: 0 to 100 scale (0 no effect, 100 complete control)
Description: as §1, §2

kochia (Kochia scoparia) [4] = assay: Test A preemergence, visual injury rating; details: 0 to 100 scale (0 no effect, 100 complete control)
Description: as §1, §2

[5] = test system: pigweed (Amaranthus retroflexus); assay: Test A preemergence, visual injury rating; details: 0 to 100 scale (0 no effect, 100 complete control)
Description: as §1, §2

[6] = test system: ragweed (common ragweed, Ambrosia elatior); assay: Test A preemergence, visual injury rating; details: 0 to 100 scale (0 no effect, 100 complete control)
Description: as §1, §2

[7] = test system: Italian ryegrass (Lolium multiflorum); assay: Test A postemergence, visual injury rating; details: 0 is no effect, 100 is complete control
Description: as §1, §2

[8] = test system: barnyardgrass (Echinochloa crus-galli); assay: Test A postemergence, visual injury rating; details: 0 is no effect, 100 is complete control
Description: as §1, §2

[9] = test system: blackgrass (Alopecurus myosuroides); assay: Test A postemergence, visual injury rating; details: 0 is no effect, 100 is complete control
Description: as §1, §2

corn (Zea mays) = assay: Test A postemergence, visual injury rating; details: 0 is no effect, 100 is complete control
Description: as §1, §2

[10] = test system: galium (catchweed bedstraw, Galium aparine); assay: Test A postemergence, visual injury rating; details: 0 is no effect, 100 is complete control
Description: as §1, §2

[11] = test system: giant foxtail (Setaria faberii); assay: Test A postemergence, visual injury rating; details: 0 is no effect, 100 is complete control
Description: as §1, §2

kochia (Kochia scoparia) [12] = assay: Test A postemergence, visual injury rating; details: 0 is no effect, 100 is complete control
Description: as §1, §2

[13] = test system: pigweed (Amaranthus retroflexus); assay: Test A postemergence, visual injury rating; details: 0 is no effect, 100 is complete control
Description: as §1, §2

[14] = test system: ragweed (common ragweed, Ambrosia elatior); assay: Test A postemergence, visual injury rating; details: 0 is no effect, 100 is complete control
Description: as §1, §2

[15] = test system: wheat (Triticum aestivum); assay: Test A postemergence, visual injury rating; details: 0 is no effect, 100 is complete control
Description: as §1, §2

| Compound | Ryegrass, Italian plant response rating ([1]; 125 g ai/ha) | Ryegrass, Italian plant response rating ([1]; 500 g ai/ha) | Barnyardgrass plant response rating ([2]; 125 g ai/ha) | Barnyardgrass plant response rating ([2]; 500 g ai/ha) | Foxtail, Giant plant response rating ([3]; 125 g ai/ha) | Foxtail, Giant plant response rating ([3]; 500 g ai/ha) | Kochia plant response rating (kochia (Kochia scoparia) [4]; 125 g ai/ha) | Kochia plant response rating (kochia (Kochia scoparia) [4]; 500 g ai/ha) | Pigweed plant response rating ([5]; 125 g ai/ha) | Pigweed plant response rating ([5]; 500 g ai/ha) | Ragweed plant response rating ([6]; 125 g ai/ha) | Ragweed plant response rating ([6]; 500 g ai/ha) | Ryegrass, Italian plant response rating (0 to 100 scale) ([7]; 125 g ai/ha) | Ryegrass, Italian plant response rating (0 to 100 scale) ([7]; 500 g ai/ha) | Barnyardgrass plant response rating (0 to 100 scale) ([8]; 125 g ai/ha) | Barnyardgrass plant response rating (0 to 100 scale) ([8]; 500 g ai/ha) | Blackgrass plant response rating (0 to 100 scale) ([9]; 125 g ai/ha) | Blackgrass plant response rating (0 to 100 scale) ([9]; 500 g ai/ha) | Corn plant response rating (0 to 100 scale) (corn (Zea mays); 125 g ai/ha) | Corn plant response rating (0 to 100 scale) (corn (Zea mays); 500 g ai/ha) | other results |
| --- | --- | --- | --- | --- | --- | --- | --- | --- | --- | --- | --- | --- | --- | --- | --- | --- | --- | --- | --- | --- | --- |
| O=C(OCC(F)(F)F)c1c(Br)cccc1Oc1ncc(Br)cn1 [Compound 34] | 0 | 0 | 0 | 90 | 70 | 100 | 20 | 40 | 40 | 100 | 0 | 0 | 0 | 0 | 0 | 20 | 10 | 70 | 30 | 30 | Galium plant response rating (0 to 100 scale) ([10]; 125 g ai/ha): 50; Galium plant response rating (0 to 100 scale) ([10]; 500 g ai/ha): 100; Foxtail, Giant plant response rating (0 to 100 scale) ([11]; 125 g ai/ha): 20; Foxtail, Giant plant response rating (0 to 100 scale) ([11]; 500 g ai/ha): 80; Kochia plant response rating (0 to 100 scale) (kochia (Kochia scoparia) [12]; 125 g ai/ha): 60; Kochia plant response rating (0 to 100 scale) (kochia (Kochia scoparia) [12]; 500 g ai/ha): 90; Pigweed plant response rating (0 to 100 scale) ([13]; 125 g ai/ha): 100; Pigweed plant response rating (0 to 100 scale) ([13]; 500 g ai/ha): 100; Ragweed plant response rating (0 to 100 scale) ([14]; 125 g ai/ha): 0; Ragweed plant response rating (0 to 100 scale) ([14]; 500 g ai/ha): 0; Wheat plant response rating (0 to 100 scale) ([15]; 125 g ai/ha): 0; Wheat plant response rating (0 to 100 scale) ([15]; 500 g ai/ha): 0 |
| O=C(OCCC(F)(F)F)c1c(F)cccc1Oc1ncc(Br)cn1 [Compound 41] | 0 | 0 | 0 | 0 | 0 | 0 | 30 | 30 | 30 | 40 | 50 | 80 | 0 | 0 | 0 | 0 | 0 | 0 | 0 | 0 | Galium plant response rating (0 to 100 scale) ([10]; 125 g ai/ha): 0; Galium plant response rating (0 to 100 scale) ([10]; 500 g ai/ha): 0; Foxtail, Giant plant response rating (0 to 100 scale) ([11]; 125 g ai/ha): 0; Foxtail, Giant plant response rating (0 to 100 scale) ([11]; 500 g ai/ha): 0; Kochia plant response rating (0 to 100 scale) (kochia (Kochia scoparia) [12]; 125 g ai/ha): 20; Kochia plant response rating (0 to 100 scale) (kochia (Kochia scoparia) [12]; 500 g ai/ha): 60; Pigweed plant response rating (0 to 100 scale) ([13]; 125 g ai/ha): 90; Pigweed plant response rating (0 to 100 scale) ([13]; 500 g ai/ha): 90; Ragweed plant response rating (0 to 100 scale) ([14]; 125 g ai/ha): 0; Ragweed plant response rating (0 to 100 scale) ([14]; 500 g ai/ha): 10; Wheat plant response rating (0 to 100 scale) ([15]; 125 g ai/ha): 0; Wheat plant response rating (0 to 100 scale) ([15]; 500 g ai/ha): 0 |
| N#Cc1cccc(Oc2ncc(Cl)cn2)c1C(=O)OCC(F)(F)F [Compound 32] | 0 | 0 | 0 | 0 | 0 | 0 | 0 | 0 | 30 | 30 | 0 | 0 | 0 | 0 | 0 | 0 | 0 | 0 | 0 | 0 | Galium plant response rating (0 to 100 scale) ([10]; 125 g ai/ha): 0; Galium plant response rating (0 to 100 scale) ([10]; 500 g ai/ha): 0; Foxtail, Giant plant response rating (0 to 100 scale) ([11]; 125 g ai/ha): 0; Foxtail, Giant plant response rating (0 to 100 scale) ([11]; 500 g ai/ha): 0; Kochia plant response rating (0 to 100 scale) (kochia (Kochia scoparia) [12]; 125 g ai/ha): 0; Kochia plant response rating (0 to 100 scale) (kochia (Kochia scoparia) [12]; 500 g ai/ha): 0; Pigweed plant response rating (0 to 100 scale) ([13]; 125 g ai/ha): 20; Pigweed plant response rating (0 to 100 scale) ([13]; 500 g ai/ha): 30; Ragweed plant response rating (0 to 100 scale) ([14]; 125 g ai/ha): 0; Ragweed plant response rating (0 to 100 scale) ([14]; 500 g ai/ha): 0; Wheat plant response rating (0 to 100 scale) ([15]; 125 g ai/ha): 0; Wheat plant response rating (0 to 100 scale) ([15]; 500 g ai/ha): 0 |
| N#CCOC(=O)c1c(Br)cccc1Oc1ncc(Cl)cn1 [Compound 40] | 0 | 0 | 0 | 50 | 20 | 100 | 60 | 90 | 40 | 100 | 0 | 0 | 0 | 0 | 0 | 20 | 10 | 20 | 20 | 20 | Galium plant response rating (0 to 100 scale) ([10]; 125 g ai/ha): 30; Galium plant response rating (0 to 100 scale) ([10]; 500 g ai/ha): 40; Foxtail, Giant plant response rating (0 to 100 scale) ([11]; 125 g ai/ha): 10; Foxtail, Giant plant response rating (0 to 100 scale) ([11]; 500 g ai/ha): 40; Kochia plant response rating (0 to 100 scale) (kochia (Kochia scoparia) [12]; 125 g ai/ha): 70; Kochia plant response rating (0 to 100 scale) (kochia (Kochia scoparia) [12]; 500 g ai/ha): 100; Pigweed plant response rating (0 to 100 scale) ([13]; 125 g ai/ha): 70; Pigweed plant response rating (0 to 100 scale) ([13]; 500 g ai/ha): 100; Ragweed plant response rating (0 to 100 scale) ([14]; 125 g ai/ha): 0; Ragweed plant response rating (0 to 100 scale) ([14]; 500 g ai/ha): 0; Wheat plant response rating (0 to 100 scale) ([15]; 125 g ai/ha): 0; Wheat plant response rating (0 to 100 scale) ([15]; 500 g ai/ha): 20 |
